According to patent US20240390316A1 (SHENZHEN TECHNOLOGY UNIVERSITY, priority 2022, published 2024):
Where a name gives a salt, the structure may show the parent alone.

Columns and labels:
CVB1 [1] = conditions: Coxsackievirus B type 1; CPE in vitro
Method: 72 hours later, the degree of a cytopathic effect was detected by an AlamarBlue fluorescent reagent, and an inhibition rate was calculated by using a formula.

CVB1 [2] = assay: Time process test (administration time after infection); format: cell-based, Coxsackievirus B1 (CVB1); conditions: different administration times, FIG. 5
CVB2 = conditions: Coxsackievirus B type 2; CPE in vitro
Vero cytotoxicity test = format: cell-based; conditions: African green monkey; Vero cells; mean ± standard deviation of three groups of parallel tests
Method: A cytotoxicity test of CVB1, CVB2 and CVB3 on Vero cells was carried out with three groups of parallel tests, respectively, and Table 1 was obtained.

CVB1 [3] = assay: Progeny virus yield of CVB1 in Vero cells (supernatant titrated by plaque reduction test); format: cell-based, Coxsackievirus B1 (CVB1); conditions: 0.02 MOI CVB1, Vero cells, 72 hours, FIG. 4c
Method: After culture for 72 hours, a supernatant was titrated by a plaque reduction test, and results were obtained from three groups of parallel tests.

[4] = test system: Coxsackievirus A (6/10/16 subtype); assay: Antiviral activity against Coxsackievirus A (CPE in vitro); format: cell-based
Method: (§1) Test 3: In vitro anti-CVB1, anti-CVB2, anti-CVB3, anti-CVA16, anti-EV71 BrCr and anti-EV71-C2 virus models of Vero cells (cell quantity: 1.5×10^4 cells per well) were established, respectively. […] An inhibition rate and a standard deviation were measured by an AlamarBlue test in three parallel tests.

[5] = test system: enterovirus type 71 (BrCr/C4 subtype); assay: Antiviral activity against enterovirus type 71 (CPE in vitro); format: cell-based
Method: as §1

CVB3 = conditions: Coxsackievirus B type 3; CPE in vitro
Coxsackievirus B = assay: Inhibition rate at 25 μM in virus-infected Vero cells (AlamarBlue); format: cell-based; conditions: 72 hours, FIG. 3
Method: as §1

Compound: CN(C)CCC=C1c2ccccc2COc2ccccc21 [doxepin hydrochloride]
- antiviral activity (in words) (CVB1 [1]): strong antiviral activity
- stage of infection cycle inhibited (in words) (CVB1 [2]): inhibits virus replication at an early stage of an infection cycle
- antiviral activity (in words) (CVB2): strong antiviral activity
- CC50 (Vero cytotoxicity test): 90.7 ± 16.4 µM
- progeny yield of CVB1 (in words) (CVB1 [3]): inhibited the progeny yield of CVB1
- antiviral activity (in words) [4]: does not have any antiviral activity
- antiviral activity (in words) [5]: does not have any antiviral activity
- antiviral activity (in words) (CVB3): strong antiviral activity
- activity spectrum from inhibition rate (in words) (Coxsackievirus B): broad-spectrum activity against Coxsackievirus B
